# Measured values taken from patent EP0812839A1, “Irreversible HIV protease inhibitors, compositions containing same and process for the preparation thereof” (LG Chemical Limited, priority 1996, dated 1997).
# Columns and labels:
# H9 cell or Sup T1 cell = assay: Cytotoxicity by trypan blue dye exclusion; format: cell-based; settings: concentration that causes death of cells by 50%, 0.1µM to 100µM tested
# HIV-1 protease = target: T1, HIV-1 protease (Human immunodeficiency virus type 1 group M subtype B, UniProt P04585); assay: Assay for inhibitory effect on HIV protease (time-dependent inactivation, HPLC readout of oligopeptide substrate cleavage); format: biochemical; settings: second order rate constant; 2.6nM HIV-1 protease; 50mM sodium acetate, pH 0.5; KINSIM/FITSIM program
# T1 construct: addition of 2.6nM of HIV-1 protease
# Description: The inhibitory effect on HIV protease of the compounds of the present invention was determined by the following method.
# To a buffer solution comprising 50mM sodium acetate, pH 0.5, 1mM dithiothreitol(DTT), 1mM ethylenediamine-tetraacetate (EDTA), 0.75M ammonium sulfate and 0.1% NP 40(NONIGET P-40; Sigma Chemical Co., U.S.A.) was added a measured amount of a compound selected from Compound Nos. 1 to 12 to prepare a preincubation solution. Inhibition reaction was started with the addition of 2.6nM of HIV-1 protease to the preincubation solution. Each of 10µl sample of the reaction solution taken at a given time interval was added to 80µl of assay solution containing […] of reaction substrate in the same buffer solution as above to assay for the residual enzyme activity. In this context, an oligopeptide consisting of 11 amino acids, i.e., H-His-Lys-Ala-Arg-Val-Leu-Phe-(p-NO2)-(Glu-Ala-Ile-Ser-NH2), was used as a reaction substrate, which oligopeptide was to be cleaved in two by the breakage of amide bond between Leu and Phe-(P-NO2) upon the attack of HIV protease. The reaction rate was determined by subjecting the substrate before the reaction and the product after the reaction to HPLC separation and then measuring the relative amount of the product, using the strong absorbance of (p-NO2)-Phe at 280nm. The amounts of reduction in enzyme activity according to the elapsed time were measured and the natural logarithmic values(ln) of the measured amounts were plotted against time to obtain a linear graph and kobs was calculated from the slope of the linear graph.
# The inhibition constant was calculated according to the following equation: (1)/(kobs)=(1)/(kina)+(KI)/(kina)(1)/([I]) [formula] wherein: kobs is a rate constant indicating the rate of reduction in enzyme activity according to the elapsed time under the presence of a given concentration of inhibitor, kina is a rate constant indicating the rate of chemical reaction forming covalent bond between an enzyme and an inhibitor in Michaelis-Menten complex, KI is an inhibition constant indicating the dissociation rate of Michaelis-Menten complex into an enzyme and an inhibitor, and [I] means the inhibitor concentration.
# The above equation is applicable to an experiment carried out under the condition in which the concentration of inhibitor is far higher than that of enzyme (Steady State Kinetic). […] The inhibition constants KI and kina and second order rate constant kina/KI were obtained by inputting the value of [E]/([E]+[EI]+[EI']) into KINSIM/FITSIM program. In case that second order rate constant kina/KI is larger than 10^9, it is hard to calculate the exact values by KINSIM/FITSIM program [Williams, J.W. and Morrison, J.F., Methods, Enzymol., 63, 437-466([…]); and Zimmerle, C.T. and Frieden, C., J. Biochem., 258, 381-387(1989)].
# HIV-1 = assay: Anti-viral activity: syncytium formation (Sup T1) or reverse transcriptase assay (H9); format: cell-based; settings: Human immunodeficiency virus 1, concentration that inhibits the proliferation of HIV by 50%, H9 or Sup T1 cell lines, 200 TCID50 of HIV-1
# Description: The anti-viral activity of the compounds of the present invention was determined by measuring the concentration of the compounds that inhibits the proliferation of HIV by 50%(IC50) through a survey for syncytium formation or reverse transcriptase assay.
# 1 x 10^5 cells of each of H9(ATCC HTB 176) and Sup T1 cell lines were added to the wells of a 24-well microtiter plate and various concentrations of the compounds of the present invention were added thereto. 200 TCID50(200-fold of 50% tissue culture infection dose) of HIV-1 inoculum and rpmi-1640 medium(Sigma Chemical Co., U.S.A) were added successively to the wells and the plate was incubated at 37°C. In case of Sup T1, the number of syncytium formed was investigated after 3 to 9 days. IC50 of each compound was determined by measuring the concentration of inhibitor that can reduce the number of syncytium by 50% compared with those formed in the same condition without the inhibitor.
# In case of H9, three-quarters(3/4) of the culture medium in volume was refreshed every 3 days; and after 9 days, 6ml of the culture fluid was taken and 2.5ml of 30% polyethyleneglycol(PEG, M.W. 6000-8000) and 0.4M NaCl were added thereto. The resulting solution was allowed to stand at 0°C overnight to precipitate virus particles. The solution was centrifuged at 2000rpm for 45 minutes, the supernatant was discarded therefrom and the precipitate was diluted with 20µl of a reverse transcriptase suspension buffer(50mM tris-HCl, pH 7.5, 1mM dithiothreitol, 20% glycerol, 0.25M KCl and 0.25% Triton X-100). The resulting suspension was stored in an Effendorf tube at -70°C until used. A procedure of freezing said virus suspension for 2 minutes in dry ice and thawing same at 37°C for 2 minutes was repeated three times and the resulting suspension was centrifuged at 4°C. The resulting supernatant was used in carrying out the reverse transcriptase assay.
# 10µl of the said viral suspension was added to a solution of: 10µl of buffer solution(250mM tris-HCl, pH 7.5, 37.5mM MgCl2, 0.25% triton X-100), 1.2µl of 200mM dithiothreitol, 5µl of 100µM oligo(dT)-poly(A)(Boeringer Manheim, 12-18 oligomer), 1µl(1µCi) of ^3H-TTP(Thymidinetri-phosphate) and 23.6µl of water; and the resulting mixture was placed at 37°C. After 1 hour, the mixture was poured onto a WHATMAN DEB1 filter and the filter was washed three times with 5ml of 2 x SSC buffer solution(17.53g of sodium chloride, 8.82g of sodium citrate, pH 7.0, 1 liter of water) for about 10 minutes each time and twice with 95% methanol for 10 seconds. The filter was put onto aluminum foil and dried with an infra-red lamp. The amount of radioactivity was counted using a liquid scintillation counter.
Compound,CT50 (H9 cell or Sup T1 cell) [µM],kina/KI (HIV-1 protease),IC50 (HIV-1) [nM]
CC(C)C(NC(=O)OC[C@@H]1O[C@@H]1[C@H](Cc1ccccc1)NC(=O)[C@@H](NC(=O)c1ccc2ccccc2n1)C(C)(C)S(C)(=O)=O)C(C)C [Example 9],>10,10^9 - 10^10 min^-1M^-1,80
"CC(C)[C@@H](Cc1ccccc1)NC(=O)OC[C@@H]1O[C@@H]1[C@H](Cc1ccccc1)NC(=O)[C@@H](NC(=O)c1ccc2ccccc2n1)C(C)(C)S(C)(=O)=O [Example 7, 4S-[N-(2-quinolinecarbonyl)-β-methanesulfony]-L-valinyl]amino-(3R,2S)-epoxy-5-pheny]-1-pentyl N-2S-(1-phenyl-3-methylbutyl) carbamate]",>10,10^9 - 10^10 min^-1M^-1,20
"CC(C)[C@@H](Cc1ccccc1)NC(=O)OC[C@@H]1O[C@@H]1[C@H](Cc1ccccc1)NC(=O)[C@@H](NC(=O)COc1cccc2cnccc12)C(C)(C)S(C)(=O)=O [Example 10, 4S-[N-(5-isoquinolinyloxymethylenecarbonyl)-β-methanesulfonyl-L-valinyl]amino-(3R,2S)-epoxy-5-phenyl-1-pentyl N-2R-(1-phenyl-3-methylbutyl) carbamate]",>10,10^9 - 10^10 min^-1M^-1,12
CC(C)C(NC(=O)OC[C@@H]1O[C@@H]1[C@H](Cc1ccccc1)NC(=O)[C@H](CC(N)=O)NC(=O)c1ccc2ccccc2n1)C(C)C [Example 3],>10,10^9 - 10^10 min^-1M^-1,110
CC(C)C(NC(=O)OC[C@@H]1O[C@@H]1[C@H](Cc1ccccc1)NC(=O)[C@@H](NC(=O)OCc1ccccc1)C(C)(C)S(C)(=O)=O)C(C)C [Example 6],>10,10^9 - 10^10 min^-1M^-1,50
CC(C)[C@H](NC(=O)OC[C@@H]1O[C@@H]1[C@H](Cc1ccccc1)NC(=O)[C@@H](NC(=O)OCc1ccccc1)C(C)(C)S(C)(=O)=O)c1ccccc1 [Example 5],>10,10^9 - 10^10 min^-1M^-1,50
"CC(C)[C@@H](Cc1ccccc1)NC(=O)OC[C@@H]1O[C@@H]1[C@H](Cc1ccccc1)NC(=O)[C@H](CC(N)=O)NC(=O)c1ccc2ccccc2n1 [Example 1, 4S-[N-(2-quinolinecarbonyl)-L-asparaginyl]amino-(3R,2S)-epoxy-5-phenylpentyl N-2R-(1-phenyl-3-methylbutyl) carbamate]",>10,10^9 - 10^10 min^-1M^-1,125
CC(C)[C@H](NC(=O)OC[C@@H]1O[C@@H]1[C@H](Cc1ccccc1)NC(=O)[C@@H](NC(=O)c1ccc2ccccc2n1)C(C)(C)S(C)(=O)=O)c1ccccc1 [Example 8],>10,10^9 - 10^10 min^-1M^-1,100
CC(C)[C@H](NC(=O)OC[C@@H]1O[C@@H]1[C@H](Cc1ccccc1)NC(=O)[C@H](CC(N)=O)NC(=O)c1ccc2ccccc2n1)c1ccccc1 [Example 2],>10,10^9 - 10^10 min^-1M^-1,130
CC(C)C(NC(=O)OC[C@@H]1O[C@@H]1[C@H](Cc1ccccc1)NC(=O)[C@@H](NC(=O)COc1cccc2cnccc12)C(C)(C)S(C)(=O)=O)C(C)C [Example 12],>10,10^9 - 10^10 min^-1M^-1,50
"CC(C)[C@@H](Cc1ccccc1)NC(=O)OC[C@@H]1O[C@@H]1[C@H](Cc1ccccc1)NC(=O)[C@@H](NC(=O)OCc1ccccc1)C(C)(C)S(C)(=O)=O [Example 4, 4S-[(N-benzyloxycarbonyl)-β-methanesulfonyl-L-valinyl]amino-(3R,2S)-epoxy-5-phenyl-1-pentyl N-2R-(1-phenyl-3-methylbutyl) carbamate]",>10,10^9 - 10^10 min^-1M^-1,15
CC(C)[C@H](NC(=O)OC[C@@H]1O[C@@H]1[C@H](Cc1ccccc1)NC(=O)[C@@H](NC(=O)COc1cccc2cnccc12)C(C)(C)S(C)(=O)=O)c1ccccc1 [Example 11],>10,10^9 - 10^10 min^-1M^-1,15
